Test [1] concerns castor oil-induced diarrhea in mice. The test can be described thus: Castor oil-induced diarrhea. Type of test: in vivo. The conditions noted are these: Mus musculus, sc, read-out: ED50 (incidence of castor oil-induced diarrhea). The protocol:
Mice were fasted overnight with water ad libitum. Mice were weighed, dosed orally with 0.6 mL of castor oil and placed in individual cubicles (11 cm×10 cm) lined with a pre-weighed sheet of absorbent paper. Thirty min after receiving castor oil, mice were injected s.c with tested compound. Seventy-five min after dosing with castor oil, the mice and absorbent paper were reweighed and the number of mice with diarrhea (defined as wet, unformed stool) was determined.
Percent inhibition by tested compounds in castor oil-induced diarrhea assay was determined by the following formula: […]

Test [2] addresses T1, cloned human κ opioid receptor (Homo sapiens, UniProt P41145).
T1 construct: expressed in transfected cells; host or cells: CHO cells (membranes)
The test can be described thus: Receptor binding: inhibition of [3H]diprenorphine binding to cloned human κ opioid receptor. The conditions noted are these: read-out: % Inhibition at 10 μM (κ). On the procedure: (§1) IC50 values were obtained by nonlinear analysis of the data using GraphPad Prism version 3.00 for Windows (GraphPad Software, San Diego). Ki values were obtained by Cheng-Prusoff corrections of IC50 values.
After dilution in buffer A and homogenization as before, membrane proteins (10-80 μg) in 250 μL were added to mixtures containing test compound and [^3H]diprenorphine (0.5 to 1.0 nM, 40,000 to 50,000 dpm) in 250 μL of buffer A in 96-well deep-well polystyrene titer plates (Beckman). After incubation at room temperature for one hour, the samples were filtered through GF/B filters that had been presoaked in a solution of 0.5% (w/v) polyethylenimine and 0.1% (w/v) bovine serum albumin in water. The filters were rinsed 4 times with 1 mL of cold 50 mM Tris HCl, pH 7.8 and radioactivity remaining on the filters determined by scintillation spectroscopy. Nonspecific binding was determined by the minimum values of the titration curves and was confirmed by separate assay wells containing 10 μM naloxone.
To determine the equilibrium dissociation constant for the inhibitors (Ki), radioligand bound (cpm) in the presence of various concentrations of test compounds was measured. The concentration to give half-maximal inhibition (EC50) of radioligand binding was determined from a best nonlinear regression fit to the following equation,
The nonlinear regression fit was performed using the program Prism® (GraphPad Software, San Diego, Calif.). The Ki values were then determined from the EC50 values by the following equation,
[formula] where [ligand] is the concentration of radioligand and Kd is the equilibrium dissociation constant for the radioligand.
as §1
[formula] where [ligand] is the concentration of radioligand and Kd is the equilibrium dissociation constant for the radioligand. Receptor-Mediated [^35S]GTP[…]S Binding

The subject of test [3] is acetic acid-induced writhing in mice. The test can be described thus: Acetic acid-induced writhing. As to conditions: 30 mg/kg (s.c.). The class given is in vivo, Male ICR mice. The protocol:
Male ICR mice weighing 20-25 g are injected s.c. with either vehicle or test compound 15 min before they are injected intraperitoneally with 0.6% acetic acid. […] treatment with acetic acid, the number of writhes is counted for 10 minutes. Dose response curves are expressed as the percent inhibition of acetic acid induced writhing, when compared to the mean number of writhes observed in the vehicle-treated mice. The mean percent inhibition (% I) of acetic acid-induced writhing for drug-treated mice is calculated according to the following formula: […]
The mean individual response is the mean number of writhes in mice treated with test compound. The mean vehicle response is the mean number of writhes in mice treated with vehicle.
Male ICR mice weighing 20-25 g are injected s.c. with either vehicle or test compound 15 minutes before they are injected intraperitoneally with 0.6% acetic acid. At 5 minutes after treatment with acetic acid, the number of writhes is counted for 10 minutes. Dose response curves are expressed as the percent inhibition of acetic acid induced writhing, when compared to the mean number of writhes observed in the vehicle-treated mice. The mean percent inhibition (% I) of acetic acid-induced writhing for drug-treated mice is calculated according to the following formula:
[formula] […]

The test system of test [4] is FCA-induced hyperalgesia in rats. The test can be described thus: Freunds Complete Adjuvant (FCA)-induced hyperalgesia, paw pressure thresholds. Type of test: in vivo. On the procedure: Rats were injected intraplantar with FCA and 24 h later treated with tested compounds administered orally. Paw Pressure Thresholds (PPT) was assessed 30, 60, 120, and 240 minutes after drug treatment.

The values that follow come from patent US8071611B2, “Spirocyclic heterocyclic derivatives and methods of their use” (Adolor Corporation, priority 2003, dated 2011).

SMILES strings stand for the structures. Where a name gives a salt, the structure may show the parent alone.

T1 sequence (P41145 whole entry): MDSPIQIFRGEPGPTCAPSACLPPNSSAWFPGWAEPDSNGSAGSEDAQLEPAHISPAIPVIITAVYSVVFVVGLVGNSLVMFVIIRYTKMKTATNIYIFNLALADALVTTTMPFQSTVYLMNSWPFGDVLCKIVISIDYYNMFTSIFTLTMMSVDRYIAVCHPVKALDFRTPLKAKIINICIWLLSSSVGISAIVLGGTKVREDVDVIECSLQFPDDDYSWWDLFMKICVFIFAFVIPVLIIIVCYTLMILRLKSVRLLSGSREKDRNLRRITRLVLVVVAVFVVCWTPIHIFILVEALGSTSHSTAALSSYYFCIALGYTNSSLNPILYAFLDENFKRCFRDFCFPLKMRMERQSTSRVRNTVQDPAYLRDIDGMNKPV

What is called ED50 is the midpoint of the dose-response relation. A word on the inhibition: it is the share of the control response that was lost under treatment. For the compound `CCN(CC)C(=O)c1ccc(C2=CC3(CCNCC3)Oc3ccccc32)cc1` [Example Z1, 4-[(4-N,N-diethylaminocarbonyl)phenyl]-spiro[2H,1-benzopyran-2,4′-piperidine]hydrochloride], the ED50 in test [1] is 8.7 mg/kg; in test [4] (Rattus norvegicus, po), 2.5 mg/kg. In addition, the inhibition at 10 µM in test [2] came out at 32%. The “inhibition of acetic acid-induced writhing” value in test [3] stood at 69%. Further, the “increase of Paw Pressure Thresholds (PPT) in the inflamed paw” value in test [4] (inflamed paw, 1-2 h after oral administration) is 170-180%.
